Experimental data published in US20250345592A1, “BIODEGRADABLE ION PATCH AND METHOD FOR MANUFACTURING THE SAME” (SEOUL NATIONAL UNIVERSITY R&DB FOUNDATION, priority 2023, published 2025).

Assay type: in vitro ADME
Method: To enhance the absorption efficiency of the drug loaded in the provided gel, the current density applied to the ion patch was adjusted. Specifically, caffeine was added to the gelatin gel laminated on the anode of the ion patch, and various current densities of 50, 100, and 150 μA were applied. The amount of caffeine absorbed into the skin was then measured and compared.

Cn1c(=O)c2c(ncn2C)n(C)c1=O [caffeine]
amount of caffeine absorbed into the skin: highest in the order of 150, 50, and 100 μA current densities
